Test results taken from US20230348437A1, “COMPOUNDS, COMPOSITIONS AND METHODS” (Denali Therapeutics Inc., priority 2020, published 2023).
Like-named read-outs stand apart in the source and are kept apart here.

Experiments:
[1] = tested on: NLRP3 (IL-1β secretion from THP-1 cells); test: IL-1β secretion assay in 384-well plates, PMA differentiated THP-1 cells, LPS and nigericin stimulation; type: cell-based; details: Homo sapiens
Description: Compounds as provided herein were tested in the following assay. […] Freezing medium was made up of 90% FBS and 10% DMSO. THP-1 cells were removed from the liquid nitrogen and placed into a 37° C. water bath to thaw, until signs of ice dissipated. The cells were then added to 9 mL of warm cell culture medium and centrifuged for 5 minutes at 1000 rpm. The supernatant was discarded, and the cells were resuspended in new cell culture medium. The THP-1 cells were then split and cultured in the cell culture medium, being passaged every 2-3 days (5×10^5 cells/mL passaged every two days, 3×10^5 cells/mL passaged every three days). Cell density was maintained between 5×10^5-1.5×10^6 viable cells/mL.
PMA was dissolved in DMSO to make a stock solution at 5 mg/mL and stored in 10 µl aliquots at -20° C. for single use. PMA is added to normal growth medium. LPS was diluted with 1 mL of water solution to provide a 1 mg/mL stock solution and stored in 15 µl aliquots at -20° C. for single use. Nigericin is diluted in ice cold 100% ethanol to 5 mg/mL (6.7 mM) and stored in 75 µL aliquots at -20° C. for single use. […] The two control conditions used to qualify and normalize test compound dose-response curves were as follows: High Control = 25 ng/mL LPS, 5 µM Nigericin, 0.5% DMSO, Low Control = 25 ng/mL, LPS, 0.5% DMSO.
THP-1 cells were diluted to provide a suspension at a concentration of 1.0×10^6 cells/mL with the total volume of suspension required to enable the desired number of assay plates. The growth media was supplemented with PMA (5 ng/mL final concentration) and the cells were incubated at 37° C. under a humidified atmosphere of 5% CO2 for 40 h.
All media was carefully aspirated from each culture flask. The cells were washed carefully with 1x DPBS. The cells were then briefly digested with trypsin LE for 5 minutes at 23° C. and immediately resuspended in cell growth media. After resuspension, the cells were centrifuged at 1000 rpm for 3 minutes and the supernatant was discarded. The cells were resuspended in DPBS and once again centrifuged at 1000 rpm for 5 minutes. The supernatant was discarded and the cell pellet was resuspended in serum-free media supplemented with LPS (25 ng/mL final concentration) to enable the distribution of 30 K THP-1 cells within 45 µL of media into each well of 384-well PDL-coated plates. The 384-well plates were then incubated at 37° C. under a humidified atmosphere of 5% CO2 for 2 h. Following this period, test compounds were dispensed by Tecan across the desired concentration range with all wells normalized to a final 0.5 % DMSO concentration. The plates were then incubated at 37° C. under a humidified atmosphere of 5% CO2 for 1 h. Following this period, 5 µL of the […] nigericin stock solution was added to each of the appropriate wells and plates were centrifuged at 1000 rpm for 30 seconds. The plates were the immediately reintroduced to the incubator at 37° C. under a humidified atmosphere of 5% CO2 for 2 h. After this time, 35 µL/well of supernatant was collected and transferred into v-bottom plate and centrifuged at 1000 rpm for 1 minute. These supernatant aliquots were analyzed using an IL-Iβ detection kit as described below. If needed, the test samples could be snap frozen and stored at -80° C. until analyzed.
To prepare each ELISA plate, capture antibody (mAb Mt175) was diluted with PBS to a final concentration of 2 µg/mL and then 20 µL of this solution was added to each well of the ELISA plate. Each plate was allowed to incubate overnight at 4° C. The next day, the capture antibody solution was removed and discarded. […] Each ELISA plate was then allowed to incubate for 1 hour at 23° C. After this time, the blocking buffer was removed and discarded. Each ELISA plate was washed 4 times with PBST. During this time, the v-bottomed plates containing the supernatant aliquots from the assay run were centrifuged at 300 g for 5 minutes before transferring 15 µL/well of the supernatant sample to each ELISA plate. […]

[2] = tested on: NLRP3 (IL-1β release from THP-1 cells); test: IL-1β detection in IFN-γ differentiated THP-1 cells, LPS induction and ATP, 96 well format; type: cell-based; details: Homo sapiens, IFN-γ 25 ng/mL, LPS 50 ng/mL, ATP 5 mM, IL-1β ELISA, read-out: Activity (IC50 class)
Description: Compounds as provided herein were tested in the following assay. Cell culture medium employed contained RPMI 1640 medium (89%), FBS (10%), Pen/Strep (1%), and 2-mercaptoethanol (0.05 mM). Freezing medium was made up of 90% FBS and 10% DMSO. THP-1 cells were removed from the liquid nitrogen and placed into a 37° C. water bath to thaw, until signs of ice dissipated. The cells were then added to 9 mL of warm cell culture medium and centrifuged for 5 minutes at 1000 rpm. The supernatant was discarded, and the cells were resuspended in new cell culture medium. The THP-1 cells were then split and cultured in the cell culture medium, being passaged every 2-3 days (5×10^5 cells/mL passaged every two days, 3×10^5 cells/mL passaged every three days). Cell density was maintained between 5×10^5-1.5×10^6 viable cells/mL.
To freeze, cells were resuspended with fresh freezing medium, adjusting the cell density to between 3×10^6-10×10^6 cells/mL. The cell suspension was partitioned into 1 mL aliquots per vial, and the vials were transferred to a -80° C. freezer. After one day at -80° C., the cell vials were transferred to liquid nitrogen freezer for storage.
PBST solution was prepared by mixing 3600 mL of water, 400 mL of 10X PBS, and 4 mL of Tween 20. IFN-γ solution was reconstituted with 100 µL of water to obtain a 1 mg/mL solution, which was then diluted with 0.1 % BSA to provide a 100 ng/mL solution. The IFN-γ solution was stored at -20° C. LPS was reconstituted with 1 mL of PBS solution to obtain a 1 mg/mL stock solution, which was further diluted to 50 ng/mL with serum-free medium. The LPS solution was stored at 4° C.
The 96 well plates were then incubated at 37° C. under a humidified atmosphere of 5% CO2 for 24 h.
LPS induction: When IFN-γ treatment was completed, the supernatants were discarded by hand. 100 µL of a 1X solution of LPS in serum-free medium (50 ng/mL) was added. The plates were incubated in a 37° C. incubator under a humidified atmosphere of 5% CO2 for 4 h. Sample compounds were dissolved in DMSO and the compound solutions were dispensed to the wells using a Tecan D300e digital dispenser. The final concentration of DMSO for each well was 0.5%. The plates were then incubated at 37° C. under a humidified atmosphere of 5% CO2 for 1 h. 20 µL of a 6X solution of ATP was added (final concentration per well: 5 mM), and the plates incubated at 37° C. under a humidified atmosphere of 5% CO2 for 1 h. The supernatants were then collected and analyzed using an IL-Iβ detection kit. If needed, the test samples could be stored at -20° C. until analyzed.
Compound dilution: Compound solution source plates (20 µL of a 10 mM solution of each compound was delivered to the specified wells and stored in a nitrogen cabinet until tested.
Coat Elisa plate: The captured antibody (mAb Mt175) was diluted in PBS to a concentration of 2 µg/mL, and then used to coat the ELISA plate (SIGMA-P6366) overnight at 4° C.
The antibody coat was discarded and the plate was washed 4 times with PBST. The plate was blocked by adding 25 µL/well of blocking buffer (LiCor-927-40000) with 0.1% Tween 20, then incubated for 1 h at room temperature. The blocking buffer was then discarded and the plate was washed 4 times with PBST.
One hour before test sample addition, the sample plates were allowed to thaw at room temperature, centrifuged at 1000 rpm for 1 minute, and shaken for 30 seconds. 25 µL/well of the test samples were transferred to the ELISA plate, and the plate was incubated for 2 h at room temperature.
The test samples were discarded and the ELISA plate was washed 4 times with PBST. 15 µL/well of mAb7P10-biotin at 0.5 µg/mL (1:1000) in blocking buffer was then added to the ELISA plate and it was incubated for 1 h at room temperature.
The antibody was discarded and the ELISA plate was washed 4 times with PBST. Then 15 µL/well of streptavidin-HRP diluted 1:1000 in blocking buffer was added to the ELISA plate and it was allowed to incubate for 1 h at room temperature.

[3] = THP-1 cells, PMA 5 ng/mL, LPS 25 ng/mL, nigericin, IL-1β ELISA, 384-well, read-out: Activity

| SMILES | IC50 [1, 3] [µM] | IC50 [2] [nM] | IC50 ([1]; THP-1, read-out: Activity (µM)) [µM] |
| --- | --- | --- | --- |
| CC(C)c1nn(CC(=O)N[C@H]2C[C@@](C)(O)C2)c(=O)cc1-c1cccc(Br)c1 [Example 14, 2-(4-(3-bromophenyl)-3-isopropyl-6-oxopyridazin-1(6H)-yl)-N-(cis-3-hydroxy-3-methylcyclobutyl)acetamide] | 1.49 | < 10000 |  |
| CC(C)c1nn(CC(=O)N[C@H]2C[C@@](C)(O)C2)c(=O)cc1-c1ccccc1Cl [Example 4, 2-(4-(2-Chlorophenyl)-3-isopropyl-6-oxopyridazin-1(6H)-yl)-N-(cis-3-hydroxy-3-methylcyclobutyl)acetamide] | 5.91 | < 10000 |  |
| C[C@]1(O)C[C@@H](NC(=O)Cn2nc(Cl)c(-c3ccccc3)cc2=O)C1 [Example 18, 2-(3-chloro-6-oxo-4-phenylpyridazin-1(6H)-yl)-N-(cis-3-hydroxy-3-methylcyclobutyl)acetamide] | 50 | > 15000 |  |
| Cc1cccc(-c2cc(=O)n(CC(=O)N[C@H]3C[C@@](C)(O)C3)nc2C(C)C)c1 [Example 9, N-(cis-3-hydroxy-3-methylcyclobutyl)-2-(3-isopropyl-6-oxo-4-(m-tolyl)pyridazin-1(6H)-yl)acetamide] | 2.27 | < 10000 |  |
| CC(C)c1nn(CC(=O)N[C@H]2C[C@@](C)(O)C2)c(=O)cc1-c1cccc(C#N)c1 [Example 8, 2-(4-(3-cyanophenyl)-3-isopropyl-6-oxopyridazin-1(6H)-yl)-N-(cis-3-hydroxy-3-methylcyclobutyl)acetamide] | 24.5 | 10000 to 15000 |  |
| CC(C)c1nn(CC(=O)N[C@H]2C[C@@](C)(O)C2)c(=O)cc1-c1cccc(F)c1 [Example 12, 2-(4-(3-fluorophenyl)-3-isopropyl-6-oxopyridazin-1(6H)-yl)-N-(cis-3-hydroxy-3-methylcyclobutyl)acetamide] | 1.66 | < 10000 |  |
| COc1nn(CC(=O)N[C@H]2C[C@@](C)(O)C2)c(=O)cc1-c1ccccc1 [Example 19] | 21.7 | < 10000 |  |
| CC(C)c1nn(CC(=O)N[C@H]2C[C@@](C)(O)C2)c(=O)cc1-c1cccc(Cl)c1 [Example 2, 2-(4-(3-chlorophenyl)-3-isopropyl-6-oxopyridazin-1(6H)-yl)-N-(cis-3-hydroxy-3-methylcyclobutyl)acetamide] | 1.49 | < 10000 |  |
| CC(C)c1nn(CC(=O)N[C@H]2C[C@@](C)(O)C2)c(=O)cc1-c1ccc(F)cc1 [Example 10, 2-(4-(4-fluorophenyl)-3-isopropyl-6-oxopyridazin-1(6H)-yl)-N-(cis-3-hydroxy-3-methylcyclobutyl)acetamide] | 50 | 10000 to 15000 |  |
| COc1nn(CC(=O)Nc2ncc(F)cn2)c(=O)cc1-c1cc(F)cc(F)c1 [Example 57, 2-[4-(3,5-difluorophenyl)-3-methoxy-6-oxopyridazin-1-yl]-N-(5-fluoropyrimidin-2-yl)acetamide] |  |  | 1.96 |
| Cc1c(-c2cc(F)cc(F)c2)c(C(C)C)nn(CC(=O)Nc2ncncc2F)c1=O [Example 38, 2-[4-(3,5-difluorophenyl)-5-methyl-6-oxo-3-propan-2-ylpyridazin-1-yl]-N-(5-fluoropyrimidin-4-yl)acetamide] | 0.812 |  |  |
| CC(C)c1nn(CC(=O)N[C@H]2C[C@@](C)(O)C2)c(=O)cc1-c1cccc(C2CC2)c1 [Example 27, 2-[4-(3-cyclopropylphenyl)-6-oxo-3-propan-2-ylpyridazin-1-yl]-N-(cis-3-hydroxy-3-methylcyclobutyl)acetamide] | 1.91 |  |  |
| CC(C)c1nn(CC(=O)N[C@H]2C[C@@](C)(O)C2)c(=O)cc1-c1cccc(F)c1F [Example 25, 2-[4-(2,3-difluorophenyl)-6-oxo-3-propan-2-ylpyridazin-1-yl]-N-(cis-3-hydroxy-3-methylcyclobutyl)acetamide] | 1.82 |  |  |
| O=C(Cn1nc(C2CCC2)c(-c2cc(F)cc(F)c2)cc1=O)Nc1ncc(F)cn1 [Example 56, 2-[3-cyclobutyl-4-(3,5-difluorophenyl)-6-oxopyridazin-1-yl]-N-(5-fluoropyrimidin-2-yl)acetamide] | 0.713 |  |  |
| CC(C)c1nn(CC(=O)Nc2ncc(F)cn2)c(=O)cc1-c1cc(F)cc(F)c1 [Example 44] | 0.236 |  |  |
| CC(C)c1nn(CC(=O)N[C@@H]2CCCN(C3CC3)C2)c(=O)cc1-c1cccc(F)c1 [Example 39, N-[(3R)-1-cyclopropylpiperidin-3-yl]-2-[4-(3-fluorophenyl)-6-oxo-3-propan-2-ylpyridazin-1-yl]acetamide] | 0.49 |  |  |
